Like-named read-outs stand apart in the source and are kept apart here.
Tests used:
DAT = DAT (Homo sapiens, UniProt Q01959); conditions: without SSRI users, reference cerebellum
Excerpt: For this retrospective study, a selection was made from a database of patients diagnosed with either PD, MSA or PSP and for whom a [^123I]FP-CIT-SPECT scan was available. Diagnoses of patients were verified using their medical records. Patients no longer receiving treatment or clinical follow-up were approached by letter and diagnoses were retrieved from their current attending neurologist. This procedure was approved by the local Medical Ethics Committee of the VUmc and all patients provided written informed consent. […] Prior to analysis of [^123I]FP-CIT-SPECT binding ratios (BR), MSA and PSP patients were manually age and gender-matched with 30 PD patients from a research database.
All patients received oral potassium perchlorate to block thyroid uptake of free radioactive iodide. [^123I]FP-CIT was injected intravenously 3 hours before image acquisition at an approximate dose of 185 MBq (specific activity >185 MBq/nmol; radiochemical purity >99%). Subjects were imaged using a dual-head gamma camera (E.Cam; Siemens. Munich. Germany) with a fan-beam collimator. 60×30 second views per head over a 180° orbit on a 128×128 pixel matrix were acquired resulting in a total imaging time of 30 minutes. Image reconstruction was performed using a filtered back projection with a Butterworth filter (order 8. cut-off 0.6 cycles/cm; voxel size: 3.9 mm^3 after reconstruction). Scans were reoriented manually to ensure that left and right striatum were aligned.
ROIs were defined for the DAT-rich caudate nucleus and the SERT-rich thalamus from the automated anatomical labelling (AAL) atlas; the DAT-rich posterior putamen was bilaterally based on the AAL atlas as described elsewhere (Vriend, C. et al. 2014 Mov Disord; 29: 904-11) the SERT-rich pons ROI was based on the Talairach Daemon (TD) Lobes atlas; and the SERT-rich hypothalamus ROI was based on the TD Brodmann area+atlas and 2× dilated. All of these ROIs are implemented in the WFU Pickatlas 3.0 (Wake Forest University, Winston-Salem, N.C., USA).
Non-specific [^123I]FP-CIT binding in the cerebellum was used as a reference (REF) (WFU Pickatlas, AAL atlas; bilateral Crus 2), because the cerebellum is relatively devoid of DAT and SERT. The ratio of specific to non-specific binding (BR), was calculated in Statistical Parametric Mapping Software version 8 (SPM8; Wellcome Trust Centre for Neuroimaging. London. UK) by: [(ROI−REF)/REF], and used as the outcome measure.
Patient analyses were grouped by diagnosis (PD; MSA-P; MSA-C; PSP). MSA was split, since a difference is expected between DAT binding in MSA-P and MSA-C (Munoz E., et al. 2011 J Neurol; 258: 2248-2253).
For the ROI analysis, normality of data was assessed by plotting histograms, examining Q-Q plots and Kolmogorov-Smirnov test for normality. One-way ANOVA tests were used where appropriate. Post-hoc testing was done with Hochberg GT2 correction. An alpha level of 0.05 was used.
ROI analysis in groups without SSRI users (total group n=48: MSA-C=7; MSA-P=6; PSP=10; PD=25)

SERT [1] = target: T1, SERT (Homo sapiens, UniProt P31645); test: [123I]FP-CIT SPECT ROI analysis, extrastriatal (hypothalamus) binding ratios; type: in vivo; conditions: without SSRI users, reference cerebellum
T1 construct: from tissue; host or cells: living patients' brain: hypothalamus, thalamus, pons (extrastriatal regions)
Excerpt: Diagnoses of patients were verified using their medical records. […]
One-way ANOVA tests were used where appropriate. Post-hoc testing was done with Hochberg GT2 correction. An alpha level of 0.05 was used.

SERT [2] = target: T1, SERT; test: Voxel-based analysis of [123I]FP-CIT SPECT, extrastriatal binding; type: in vivo; conditions: groups without SSRI users
Procedure: All voxels in the [^123I]FP-CIT SPECT scan were adjusted by the mean binding in the cerebellar reference region according to: [(voxel−REF)/REF]. Voxel-based between-group analyses were performed in SPM8 and explicitly masked for the relevant ROI, using the same masks as the ROI analysis. Statistical threshold was set to P<0.05, Family-Wise Error (FWE) corrected for multiple comparisons, Ke>0. Age was included as nuisance covariate in all analyses.
Masks were based on the Automated anatomical labeling (AAL) atlas and created with the Wake-Forest University PickAtlas tool 3.0. Finally, the results of groups on SSRIs versus not being on a SSRI while scanned were compared with a ROI analysis.
Voxel-Based, Groups without SSRI Users, Extrastriatal Binding

[3] = target: serotonin transporter (SERT) (Homo sapiens, UniProt P31645); conditions: Abi-Dargham et al. 1996; cited from earlier work
SERT [4] = target: T1, SERT; conditions: cited from earlier work
[5] = target: dopamine transporter (DAT) (Homo sapiens, UniProt Q01959); conditions: presynaptic membrane of dopaminergic neurons; cited from earlier work
Chain of dopamine transporter (DAT) (Q01959 whole entry, species assumed): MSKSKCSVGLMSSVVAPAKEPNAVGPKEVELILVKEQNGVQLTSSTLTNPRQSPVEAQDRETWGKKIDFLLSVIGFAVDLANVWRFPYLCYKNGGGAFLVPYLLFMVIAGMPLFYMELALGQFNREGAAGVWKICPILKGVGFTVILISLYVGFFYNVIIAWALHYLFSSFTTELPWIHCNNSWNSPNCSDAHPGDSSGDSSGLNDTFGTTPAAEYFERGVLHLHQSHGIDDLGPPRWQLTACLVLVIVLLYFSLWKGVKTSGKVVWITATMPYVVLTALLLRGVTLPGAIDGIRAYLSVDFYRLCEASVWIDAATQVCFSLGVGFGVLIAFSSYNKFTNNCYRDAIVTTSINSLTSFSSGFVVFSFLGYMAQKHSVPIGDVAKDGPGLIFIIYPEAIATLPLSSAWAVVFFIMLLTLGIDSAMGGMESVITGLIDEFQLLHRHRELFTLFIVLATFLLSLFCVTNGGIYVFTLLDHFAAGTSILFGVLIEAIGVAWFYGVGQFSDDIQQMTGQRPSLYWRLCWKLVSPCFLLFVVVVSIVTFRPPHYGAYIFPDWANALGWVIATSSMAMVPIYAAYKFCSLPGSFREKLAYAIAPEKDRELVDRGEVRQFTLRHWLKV

T1 sequence (P31645 whole entry): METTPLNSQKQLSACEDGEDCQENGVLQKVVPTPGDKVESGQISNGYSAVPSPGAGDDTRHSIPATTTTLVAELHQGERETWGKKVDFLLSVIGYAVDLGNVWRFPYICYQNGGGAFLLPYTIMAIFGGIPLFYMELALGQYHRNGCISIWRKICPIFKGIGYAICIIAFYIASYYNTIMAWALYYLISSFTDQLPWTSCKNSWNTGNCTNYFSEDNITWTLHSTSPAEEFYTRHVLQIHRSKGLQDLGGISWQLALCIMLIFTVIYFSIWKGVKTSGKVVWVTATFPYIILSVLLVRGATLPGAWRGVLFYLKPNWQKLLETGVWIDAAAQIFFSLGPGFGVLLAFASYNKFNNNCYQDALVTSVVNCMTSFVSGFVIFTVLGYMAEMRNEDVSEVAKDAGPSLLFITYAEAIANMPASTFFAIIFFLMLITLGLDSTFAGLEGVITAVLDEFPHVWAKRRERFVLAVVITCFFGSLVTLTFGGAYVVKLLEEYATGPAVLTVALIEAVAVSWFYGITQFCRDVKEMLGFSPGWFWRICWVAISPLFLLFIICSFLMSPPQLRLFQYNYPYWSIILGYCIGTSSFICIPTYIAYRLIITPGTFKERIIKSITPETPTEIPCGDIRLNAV
Chain of DAT (Q01959 whole entry): as the sequence (Q01959 whole entry, species assumed) above
Chain of serotonin transporter (SERT) (P31645 whole entry, species assumed): as the sequence (P31645 whole entry) above

COC(=O)[C@H]1[C@@H](c2ccc([123I])cc2)C[C@@H]2CC[C@H]1N2CCCF [[^123I]FP-CIT, [^123I]N-w-fluoropropyl-2β-carbomethoxy-3β-(4-iodophenyl) nortropane]
mean [123I]FP-CIT binding ratio, left caudate (DAT; MSA-C patients): 1.99
mean [123I]FP-CIT binding ratio, left posterior putamen (DAT; MSA-C patients): 2.12
mean [123I]FP-CIT binding ratio, right caudate (DAT; MSA-C patients): 2.16
mean [123I]FP-CIT binding ratio, right posterior putamen (DAT; MSA-C patients): 1.95
mean [123I]FP-CIT binding ratio, left posterior putamen (DAT; MSA-P patients): 1.36
mean [123I]FP-CIT binding ratio, right posterior putamen (DAT; MSA-P patients): 1.19
mean [123I]FP-CIT binding ratio, left caudate (DAT; PD patients): 1.87
mean [123I]FP-CIT binding ratio, left posterior putamen (DAT; PD patients): 1.58
mean [123I]FP-CIT binding ratio, right caudate (DAT; PD patients): 1.92
mean [123I]FP-CIT binding ratio, left caudate (DAT; PSP patients): 1.28
mean [123I]FP-CIT binding ratio, left posterior putamen (DAT; PSP patients): 1.29
mean [123I]FP-CIT binding ratio, right caudate (DAT; PSP patients): 1.39
mean hypothalamic [123I]FP-CIT binding ratio (SERT [1]; MSA-C patients): 0.78
mean hypothalamic [123I]FP-CIT binding ratio (SERT [1]; MSA-P patients): 0.45
mean hypothalamic [123I]FP-CIT binding ratio (SERT [1]; PD patients): 0.67
mean hypothalamic [123I]FP-CIT binding ratio (SERT [1]; PSP patients): 0.47
hypothalamus binding ratios, between-group comparison (voxel-based) (SERT [2]; MSA-C vs PSP): higher binding ratios in hypothalamus in MSA-C than in PSP
hypothalamus binding, between-group comparison (voxel-based) (SERT [2]; PD vs MSA-P or PSP): statistically significantly higher in PD than in MSA-P or PSP
affinity for the serotonin transporter (SERT) [3]: modest affinity
hypothalamus binding, MSA-P and PSP vs PD (SERT [4]; Joling et al. 2016): lower binding in the hypothalamus in MSA-P and PSP patients than in PD patients
midbrain binding, PSP vs PD (SERT [4]; Roselli et al. 2010): lower in PSP patients than in PD patients
affinity to the dopamine transporter (DAT) [5]: high affinity

— patent US10980899B2, “Differential diagnosis” (GE Healthcare Limited, priority 2016, dated 2021)
